# Measurements taken from patent publication US12485107B2, “Methods for the prevention or treatment of cytokine storm” (Beth Israel Deaconess Medical Center, Inc., priority 2019, dated 2025).
# “Also recorded” adds a separate entry of the source.
# Key:
# [1] = test system: ID8 murine ovarian tumor cells; experiment: Annexin V/propidium iodide flow cytometry of chemotherapy-treated ID8 cells; format: cell-based; conditions: annexin V/PI; cisplatin 30 μM 48 hours, carboplatin 100 μM 72 hours, paclitaxel 1 μM 48 hours
# Procedure: Chemotherapy-generated murine (ID8) and human (OVCAR5) ovarian tumor cell debris were prepared by re-feeding 70% confluent T150 flasks with complete medium plus 1 μM paclitaxel (Cayman Chemical, Ann Arbor, MI) or 100 μM carboplatin (Sigma Aldrich, Natick, MA) and incubating for 48 or 72 hours, respectively, at 37° C. Cisplatin-generated ID8 debris was prepared by re-feeding 70% confluent T150 flasks with complete medium plus 30 μM cisplatin (Sigma Aldrich, Natick, MA) and incubating for 48 hours at 37° C. The resulting floating population (e.g., dead cells or “debris”) was collected, counted via hemocytometer, and pelleted. The dead cells were resuspended with phosphate-buffered saline (PBS), pelleted, and resuspended again at the desired concentration in PBS.
# Murine (ID8) or human (OVCAR5) ovarian tumor cells were treated with vehicle or a chemotherapeutic agent (e.g., cisplatin, carboplatin, or paclitaxel) as described. B/CMBA.Ov murine ovarian epithelial cells were treated with vehicle or PTUPB (1 or 5 μM) for 24 hours. The floating population (e.g., dead cells or “debris”) was collected, and the remaining adhered cells were trypsinized and combined with the dead cells. RAW264.7 murine macrophages were treated with vehicle or PTUPB (5 μM) for 24 hours. The floating population was collected and the remaining adhered cells were detached using a cell scraper (Corning Inc., Corning, NY) and combined with the dead cells. Cells were counted via hemocytometer, pelleted, and resuspended in PBS at 1×10^6 cells/mL. Next, 2×10^5 cells were stained with annexin V and propidium iodide (PI) according to FITC Annexin V/Dead Cell Apoptosis Kit protocol (Life Technologies, Carlsbad, CA). Staining was assessed using the BD LSR Fortessa (BD Biosciences, San Jose, CA) at the Dana-Farber Cancer Institute Jimmy Fund Flow Cytometry Core, and analyzed using FlowJo software (Tree Star Inc., Ashland, OR). Experiments were performed three times with similar results.
# [2] = test system: RAW264.7 murine macrophages; format: cell-based; conditions: 5 μM, 2 hours pre-treatment
SMILES,cell death in ID8 ovarian cells [1] [%],cytokine storm released by macrophages stimulated with aflatoxin B1-generated Hepa 1-6 debris [2]
N.N.O=C([O-])C1(C(=O)[O-])CCC1.[Pt+2] [carboplatin],78,
"COc1ccc(-n2nc(CCCNC(=O)Nc3ccc(C(F)(F)F)cc3)cc2-c2ccccc2)cc1 [Ome-21i, 1-(3-(1-(4-methoxyphenyl)-5-phenyl-1H-pyrazol-3-yl)propyl)-3-(4-(trifluoromethyl)phenyl)urea]",,shows potency in down-regulating; also recorded: inhibited
N.N.[Cl][Pt][Cl] [Cisplatin],67,
CC(=O)O[C@H]1C(=O)[C@@]2(C)[C@H]([C@H](OC(=O)c3ccccc3)[C@]3(O)C[C@H](OC(=O)[C@H](O)[C@@H](NC(=O)c4ccccc4)c4ccccc4)C(C)=C1C3(C)C)[C@]1(OC(C)=O)CO[C@@H]1C[C@@H]2O [paclitaxel],56,
